# Patent publication US8461328B2, “Tricyclic heterocyclic compounds, compositions and methods of use thereof” (Genentech, Inc., priority 2010, dated 2013)
# Tests used:
# Type in all cases: biochemical
# TYK2 = target: T1, TYK2 (Homo sapiens, UniProt P29597); assay: TYK2 inhibition (Table 4)
# T1 construct: made in house; host or cells: SF9 insect cells (baculovirus)
# T1 sequence (P29597 873-1187): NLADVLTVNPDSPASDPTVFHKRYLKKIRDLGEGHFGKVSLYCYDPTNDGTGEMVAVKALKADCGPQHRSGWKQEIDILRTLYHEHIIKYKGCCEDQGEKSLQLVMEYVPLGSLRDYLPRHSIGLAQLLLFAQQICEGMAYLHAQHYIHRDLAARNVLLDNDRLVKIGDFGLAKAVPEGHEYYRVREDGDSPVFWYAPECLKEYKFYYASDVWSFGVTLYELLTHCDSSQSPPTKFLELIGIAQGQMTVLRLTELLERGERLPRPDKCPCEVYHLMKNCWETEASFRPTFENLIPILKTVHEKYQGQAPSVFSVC
# JAK2 = target: T2, JAK2 (Homo sapiens, UniProt O60674); assay: JAK2 inhibition (Table 4); settings: read-out: JAK2 Ki
# T2 construct: made in house; host or cells: SF9 insect cells (baculovirus)
# T2 sequence (O60674 812-1132): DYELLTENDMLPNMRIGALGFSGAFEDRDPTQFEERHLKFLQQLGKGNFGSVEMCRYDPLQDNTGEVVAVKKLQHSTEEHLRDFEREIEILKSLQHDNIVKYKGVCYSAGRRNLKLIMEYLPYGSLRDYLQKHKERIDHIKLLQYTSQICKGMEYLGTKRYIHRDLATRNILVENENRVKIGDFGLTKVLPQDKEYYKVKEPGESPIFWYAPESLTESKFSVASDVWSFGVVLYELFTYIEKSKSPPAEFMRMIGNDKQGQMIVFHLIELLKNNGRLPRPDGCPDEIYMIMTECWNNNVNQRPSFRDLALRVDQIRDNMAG
# JAK3 = target: T3, JAK3 (Homo sapiens, UniProt P52333); assay: JAK3 inhibition (Table 4); settings: read-out: JAK3 Ki
# T3 construct: made in house; host or cells: SF9 insect cells (baculovirus)
# T3 sequence (P52333 783-1124): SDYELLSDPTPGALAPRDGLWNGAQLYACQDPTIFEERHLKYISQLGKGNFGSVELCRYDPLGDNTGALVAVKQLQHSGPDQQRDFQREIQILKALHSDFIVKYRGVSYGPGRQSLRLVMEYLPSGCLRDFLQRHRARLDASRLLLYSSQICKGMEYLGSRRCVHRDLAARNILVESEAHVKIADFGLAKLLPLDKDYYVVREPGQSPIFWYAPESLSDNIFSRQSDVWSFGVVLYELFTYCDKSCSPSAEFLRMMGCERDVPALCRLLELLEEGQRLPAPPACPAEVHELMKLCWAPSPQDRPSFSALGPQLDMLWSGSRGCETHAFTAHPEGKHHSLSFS
# JAK1 = target: T4, JAK1 (Homo sapiens, UniProt P23458); assay: JAK1 inhibition (Table 4); settings: read-out: JAK1 Ki
# T4 construct: made in house; host or cells: SF9 insect cells (baculovirus)
# T4 sequence (P23458 852-1154): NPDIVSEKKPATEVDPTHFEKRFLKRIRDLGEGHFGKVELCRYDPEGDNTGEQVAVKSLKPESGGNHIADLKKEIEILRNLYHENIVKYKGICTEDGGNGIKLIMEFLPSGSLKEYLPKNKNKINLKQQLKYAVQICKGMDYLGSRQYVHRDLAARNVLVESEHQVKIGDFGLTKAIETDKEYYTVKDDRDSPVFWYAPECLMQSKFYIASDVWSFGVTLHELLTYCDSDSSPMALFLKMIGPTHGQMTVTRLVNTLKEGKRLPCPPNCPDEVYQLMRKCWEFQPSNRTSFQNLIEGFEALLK
SMILES,Ki (TYK2),Ki (JAK2),Ki (JAK3),Ki (JAK1)
"CC(C)c1nc2cnc3[nH]ccc3c2n1C1CCN(CCC#N)CC1 [Example 281, 3-[4-(2-Isopropyl-6H-1,3,5,6-tetraaza-as-indacen-1-yl)-piperidin-1-yl]-propionitrile]",171 nM,25.1 nM,16.3 nM,7.49 nM
"O=C(CS(=O)(=O)c1ccccc1)N1CCC[C@@H](n2cnc3cnc4[nH]ccc4c32)C1 [Example 76, 2-Benzenesulfonyl-1-[(R)-3-(6H-1,3,5,6-tetraaza-as-indacen-1-yl)-piperidin-1-yl]ethanone]",531 nM,73 nM,232 nM,51.7 nM
"O=C1CCCN1c1ccc(S(=O)(=O)N2CCC(n3cnc4cnc5[nH]ccc5c43)CC2)cc1 [Example 445, 1-{4-[4-(6H-1,3,5,6-Tetraaza-as-indacen-1-yl)-piperidine-1-sulfonyl]-phenyl}-pyrrolidin-2-one]",96.9 nM,39.2 nM,84 nM,11.9 nM
"O=S(=O)(C1CC1)N1CCC(n2cnc3cnc4[nH]ccc4c32)CC1 [Example 69, 1-(1-Cyclopropanesulfonyl-piperidin-4-yl]-1,6-dihydro-1,3,5,6-tetraaza-as-indacene]",26.6 nM,4.41 nM,93.3 nM,3.44 nM
"CCC(COC)n1cnc2cnc3[nH]ccc3c21 (racemic) [Example 419, 1-(1-Methoxymethyl-propyl)-1,6-dihydro-1,3,5,6-tetraaza-as-indacene]",812 nM,198 nM,160 nM,144 nM
"c1ncc(CN[C@H]2CC[C@@H](n3cnc4cnc5[nH]ccc5c43)CC2)cn1 [Example 333, Pyrimidin-5-ylmethyl-[4-(6H-1,3,5,6-tetraaza-as-indacen-1-yl)-cyclohexyl]-amine]",59.1 nM,25.3 nM,170 nM,11.7 nM
"O=C1CC2CCC(n3cnc4cnc5[nH]ccc5c43)CC2N1 (racemic) [Example 111, 6-(6H-1,2,3,5,6-Tetraaza-as-indacen-1-yl)-octahydro-indol-2-one]",21 nM,10.4 nM,26.5 nM,4.87 nM
"Cc1nccn1Cc1nc2cnc3[nH]ccc3c2n1C1CCN(CCC#N)CC1 [Example 402, 3-{4-[2-(2-Methyl-imidazol-1-ylmethyl)-6H-1,3,5,6-tetraaza-as-indacen-1-yl]-piperidin-1-yl}-propionitrile]",35.7 nM,8.8 nM,66.8 nM,5.4 nM
"N#CCCN1CCC(n2c(CCNC(=O)C3CCC3)nc3cnc4[nH]ccc4c32)CC1 [Example 375, Cyclobutanecarboxylic acid (2-{1-[1-(2-cyano-ethyl)-piperidin-4-yl]-1,6-dihydro-1,3,5,6-tetraaza-as-indacen-2-yl}-ethyl)-amide]",158 nM,43 nM,59.8 nM,4.11 nM
"CC1(C(=O)N2CCC[C@@H](n3cnc4cnc5[nH]ccc5c43)C2)CC1 [Example 227, (1-Methyl-cyclopropyl)-[(R)-3-(6H-1,3,5,6-tetraaza-as-indacen-1-yl)-piperidin-1-yl]-methanone]",12.5 nM,3.16 nM,83 nM,6.41 nM
"Cc1nc2cnc3[nH]ccc3c2n1C1CCN(CC(O)(C(F)(F)F)C(F)(F)F)CC1 [Example 354, 1,1,1,3,3,3-Hexafluoro-2-[4-(2-methyl-6H-1,3,5,6-tetraaza-as-indacen-1-yl)-piperidin-1-ylmethyl]-propan-2-ol]",10.9 nM,5.24 nM,120 nM,2.5 nM
"N#CCCNC1CC(n2cnc3cnc4[nH]ccc4c32)C1 (stereo not shown) [Example 331, 3-[3-(6H-1,3,5,6-Tetraaza-as-indacen-1-yl)-cyclobutylamino]-propionitrile]",45.8 nM,16 nM,64.4 nM,6.08 nM

# Other lines, results leading:
Ki (TYK2),Ki (JAK2),Ki (JAK3),Ki (JAK1),SMILES
175 nM,263 nM,119 nM,88.3 nM,"CC(O)c1nc2cnc3[nH]ccc3c2n1C1CC2CCC1O2 (stereo not shown) [Example 938, 1-[1-(7-Oxa-bicyclo[2.2.1]hept-2-yl)-1,6-dihydro-1,3,5,6-tetraaza-as-indacen-2-yl]-ethanol]"
27.3 nM,76.6 nM,51 nM,18.2 nM,"OCc1nc2cnc3[nH]ccc3c2n1C1CCOCC1 [Example 542, [1-(Tetrahydro-pyran-4-yl)-1,6-dihydro-1,3,5,6-tetraaza-as-indacen-2-yl]-methanol]"
599 nM,596 nM,1120 nM,52.5 nM,"CC(O)c1nc2cnc3[nH]ccc3c2n1C1CCCN(C(=O)C2CCOC2)C1 (stereo not shown) [Example 786, {3-[2-(1-Hydroxy-ethyl)-6H-1,3,5,6-tetraaza-as-indacen-1-yl]-piperidin-1-yl}-(tetrahydro-furan-3-yl)-methanone]"
21.5 nM,57.5 nM,137 nM,1.96 nM,"C[C@@H](O)c1nc2cnc3[nH]ccc3c2n1[C@H]1CC[C@H](NCCC#N)CC1 [Example 615, Trans 3-{4-[2-((R)-1-hydroxy-ethyl)-6H-1,2,3,5,6-tetraaza-as-indacen-1-yl]-cyclohexylamino}-propionitrile]"
4.04 nM,14.4 nM,58.1 nM,0.78 nM,"C[C@@H](O)c1nc2cnc3[nH]ccc3c2n1[C@H]1CC[C@H](OCC#N)CC1 [Example 639, Trans {4-[2-((R)-1-hydroxy-ethyl)-6H-1,2,3,5,6-tetraaza-as-indacen-1-yl]-cyclohexyloxy}-acetonitrile]"
24.2 nM,10.2 nM,11.8 nM,6.59 nM,"OC1CCCC(n2nnc3cnc4[nH]ccc4c32)C1 (single isomer, unassigned) [Example 552, 3-(6H-1,2,3,5,6-Pentaaza-as-indacen-1-yl)-cyclohexanol]"
580 nM,88.4 nM,90.7 nM,11.2 nM,"Cn1ccc(CCc2nc3cnc4[nH]ccc4c3n2C2CCN(CCC#N)CC2)n1 [Example 814, 3-(4-{2-[2-(1-Methyl-1H-pyrazol-3-yl)-ethyl]-6H-1,3,5,6-tetraaza-as-indacen-1-yl}-piperidin-1-yl)-propionitrile]"
95.8 nM,34 nM,23.6 nM,9.7 nM,"CS(=O)(=O)Cc1nc2cnc3[nH]ccc3c2n1C1CCN(CCC#N)CC1 [Example 491, 3-[4-(2-Methanesulfonylmethyl-6H-1,3,5,6-tetraaza-as-indacen-1-yl)-piperidin-1-yl]-propionitrile]"
23.8 nM,6 nM,30.4 nM,2.86 nM,"CCN1CCC(n2cnc3cnc4[nH]ccc4c32)C(F)(F)C1 (racemic) [Example 532, 1-(1-Ethyl-3,3-difluoro-piperidin-4-yl)-1,6-dihydro-1,3,5,6-tetraaza-as-indacene]"
254 nM,91.8 nM,191 nM,23.5 nM,"CCc1nccn1CCc1nc2cnc3[nH]ccc3c2n1C1CCN(CCC#N)CC1 [Example 815, 3-(4-{2-[2-(2-Ethyl-imidazol-1-yl)-ethyl]-6H-1,3,5,6-tetraaza-as-indacen-1-yl}-piperidin-1-yl)-propionitrile]"
834 nM,1480 nM,858 nM,167 nM,"C[C@@H](O)c1nc2cnc3[nH]ccc3c2n1[C@@H]1CCNC1 [Example 687, (R)-1-((R)-1-Pyrrolidin-3-yl-1,6-dihydro-1,2,3,5,6-tetraaza-as-indacen-2-yl)-ethanol]"
33.8 nM,10 nM,82.8 nM,2.06 nM,"CCS(=O)(=O)N1CCC(C)(n2cnc3cnc4[nH]ccc4c32)CC1 [Example 757, 1-(1-Ethanesulfonyl-4-methyl-piperidin-4-yl)-1,6-dihydro-1,3,5,6-tetraaza-as-indacene]"
56.4 nM,12 nM,12.2 nM,3.93 nM,"N#CCCN1CCC(n2c(CNC(=O)c3ccccc3F)nc3cnc4[nH]ccc4c32)CC1 [Example 501, N-{1-[1-(2-Cyano-ethyl)-piperidin-4-yl]-1,6-dihydro-1,3,5,6-tetraaza-as-indacen-2-ylmethyl}-2-fluoro-benzamide]"
793 nM,268 nM,833 nM,127 nM,"COCC(=O)NC1CCCC(n2cnc3cnc4[nH]ccc4c32)C1 (single isomer, unassigned) [Example 481, 2-Methoxy-N-[3-(6H-1,3,5,6-tetraaza-as-indacen-1-yl)-cyclohexyl]-acetamide]"
478 nM,256 nM,196 nM,38 nM,"CC(C)CNC(=O)Cc1nc2cnc3[nH]ccc3c2n1C1CCCOC1 (racemic) [Example 966, N-Isobutyl-2-[1-(tetrahydro-pyran-3-yl)-1,6-dihydro-1,3,5,6-tetraaza-as-indacen-2-yl]-acetamide]"
210 nM,363 nM,195 nM,28.2 nM,"CC(=O)N1CCN(C(=O)Cc2nc3cnc4[nH]ccc4c3n2C2CCCOC2)CC1 (racemic) [Example 977, 1-(4-Acetyl-piperazin-1-yl)-2-[1-(tetrahydro-pyran-3-yl)-1,6-dihydro-1,3,5,6-tetraaza-as-indacen-2-yl]-ethanone]"
